The text below walks through data of patent US20240116910A1, “Heterocycles as WIP1 Inhibitors” (PMV Pharmaceuticals, Inc., priority 2022, published 2024).

Structures are written as SMILES. Bounds are passed on as bounds.

Chain of recombinant His-tag Wip1(2-420) protein (amino acids #2-420) (O15297 2-420): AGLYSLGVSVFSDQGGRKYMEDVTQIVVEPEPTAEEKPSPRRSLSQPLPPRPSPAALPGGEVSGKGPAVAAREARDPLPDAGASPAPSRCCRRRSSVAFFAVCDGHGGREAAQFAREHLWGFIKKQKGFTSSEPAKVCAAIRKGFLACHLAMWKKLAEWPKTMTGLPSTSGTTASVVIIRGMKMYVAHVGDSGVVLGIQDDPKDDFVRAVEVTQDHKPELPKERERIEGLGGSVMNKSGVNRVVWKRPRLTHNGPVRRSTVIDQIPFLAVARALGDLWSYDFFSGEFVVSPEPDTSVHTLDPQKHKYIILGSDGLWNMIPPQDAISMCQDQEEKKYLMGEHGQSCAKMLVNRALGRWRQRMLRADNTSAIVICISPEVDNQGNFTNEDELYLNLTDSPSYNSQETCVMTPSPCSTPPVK

The experiment concerns the target recombinant His-tag Wip1(2-420) protein (amino acids #2-420) (Homo sapiens (Human), UniProt O15297). In words: Wip1(2-420) phosphatase enzyme FDP assay. In kind it is biochemical. The conditions noted are these: fluorescein diphosphate (FDP) substrate, RT 2 hours, fluorescence Ex485/Em535; read-out: WIP1 (Truncated 2-420) FDP Assay: IC50. Here is the method: The Human Wip1 (2-420, aa 2-420) or Wip1 full length (aa 1-605) DNA sequence was codon optimized and synthesized by Genscript for insect cell expression. The open reading frame of Wip1(2-420) with a N-terminal-His6 affinity tag followed by a TEV cleavage site was subcloned sites into the pFastBac1 expression vector. The recombinant bacmid DNA was transfected in Sf9 insect cells for baculovirus production. After 72 hours infection, the Sf9 cells were harvested by centrifugation and resuspended in lysis buffer containing 50 mM Tris/HCl, pH 8.0, 500 mM NaCl, 20% glycerol, Benzonase 0.5% CHAPS and Roche cOmplete™ EDTA free protease inhibitors. Cells were disrupted with microfluidizer and the debris was removed by centrifugation at 185,000 g for 1 hour. The supernatant was subjected to HisTrap FF for affinity purification. Proteins were eluted with a linear gradient of 0-500 mM imidazole in HisTrap buffer containing 50 mM Tris/HCl, pH 8.0, 500 mM NaCl and 20% glycerol, 0.05% CHAPS. The eluted protein was dialyzed against dialysis buffer (20 mM MES, 100 mM NaCl, 20% glycerol, 0.5 mM TCEP, 0.05% CHAPS) followed purification via HiTrap SP HP column. The protein was eluted with a gradient of 100 mM-2 M NaCl in dialysis buffer. His6-[…] was finally concentrated and loaded onto a size-exclusion column (NiLoad 16/600 Superdex 200 pg, GE Healthcare) pre-equilibrated with 50 mM MOPS (pH 7.5), 200 mM NaCl, 20% glycerol, 1 mM TCEP, 0.05% CHAPS and 0.1 mM EGTA. The peak fractions containing purified Nis6-Wip1(2-420) were pooled and concentrated to 1.0 mg/mL and flash frozen at −80° C.
Wip1 Length and Wip1(2-420) Phosphatase Enzyme FDP Assays.
Test compounds (252 mM stock in DMSO) were diluted 3 folds in series in DMSO and 1.2 μl per well were added into 384-well polypropylene black plates (Nunc). Twelve μl per well of Assay Buffer (100 mM NaCl, 50 mM MOPS, pH 7.5, 0.8 mM CHAPS, 0.1 mM EGTA, 30 mM MgCl2, 0.3 mM TCEP, 0.2 mg/mL BSA) was added followed by […] per well of 50.4 nM recombinant His-tag Wip1 full length protein (amino acids #1-605) or recombinant His-tag Wip1(2-420) protein (amino acids #2-420) in Assay Buffer and the plate was incubated at RT (22° C.) for 5 min. Ten mM of fluorescein diphosphate (FDP) in DMSO was diluted to […] in Assay Buffer and […] per well was added to the plate and incubated at RT (22° C.) for 2 hours. […] per well of 64.1 mM EDTA in water were added to stop the enzyme reaction. The plate was centrifuged at 1,200 rpm (Eppendorf 5810R Plate centrifuge) for 1 minute and fluorescence intensity (Ex485/Em535) was measured on Perkin Elmer Victor Reader. EC50 values were calculated using either Prism (GraphPad) or ActivityBase software (IDBS), The IC50 results are provided in Table M.
For the compound `Cc1ncc(Cl)cc1N[C@@H](C)c1ccc(C(=O)N[C@@H](CC2CCCC2)C(=O)Nc2cnn(C3COC3)c2)s1` [Compound 144, (2S)-2-({5-[(1S)-1-[(5-chloro-2-methylpyridin-3-yl)amino]ethyl]thiophen-2-yl}formamido)-3-cyclopentyl-N-[1-(oxetan-3-yl)-1H-pyrazol-4-yl]propanamide], the IC50 was 6 nM.

`Cc1ncc(Cl)cc1N[C@@H](C)c1ccc(C(=O)N[C@@H](CC2CCCC2)C(=O)NC2CC3(CCC3)C2)s1` [Compound 104, (2S)-2-({5-[(1S)-1-[(5-chloro-2-methylpyridin-3-yl)amino]ethyl]thiophen-2-yl}formamido)-3-cyclopentyl-N-{spiro[3.3]heptan-2-yl}propanamide]: the IC50 stood at 6 nM. As for `Cc1ncc(Cl)cc1N[C@@H](C)c1ccc(C(=O)N[C@@H](CC2CCCC2)C(=O)Nc2cc(N)ccn2)s1` [Compound 150, (2S)-N-(4-aminopyridin-2-yl)-2-({5-[(1S)-1-[(5-chloro-2-methylpyridin-3-yl)amino]ethyl]thiophen-2-yl}formamido)-3-cyclopentylpropanamide], the IC50 came out at 8 nM. Consider `Cc1ncc(Cl)cc1N[C@@H](C)c1ccc(C(=O)N[C@@H](CC2CCCC2)C(=O)NC23CCC(CC2)CC3)s1` [Compound 257, (2S)-N-{bicyclo[2.2.2]octan-1-yl}-2-({5-[(1S)-1-[(5-chloro-2-methylpyridin-3-yl)amino]ethyl]thiophen-2-yl}formamido)-3-cyclopentylpropanamide], for which the IC50 turned out to be 8 nM. In the case of `Cc1ncc(Cl)cc1N[C@@H](C)c1ccc(C(=O)N[C@@H](CC2CCCCC2)C(=O)Nc2ccc(F)cc2)s1` [Compound 112, (2S)-2-({5-[(1S)-1-[(5-chloro-2-methylpyridin-3-yl)amino]ethyl]thiophen-2-yl}formamido)-3-cyclohexyl-N-(4-fluorophenyl)propanamide], the IC50 was 4 nM.

With `Cc1ncc(Cl)cc1N[C@@H](Cc1ccccc1)c1ccc(C(=O)N[C@@H](CC2CCCC2)C(=O)NC2CC2)s1` [Compound 262, (2S)-2-({5-[(1S)-1-[(5-chloro-2-methylpyridin-3-yl)amino]-2-phenylethyl]thiophen-2-yl}formamido)-3-cyclopentyl-N-cyclopropylpropanamide], the IC50 turned out to be 6 nM. Take `Cc1cc(NC(=O)[C@H](CC2CCCC2)NC(=O)c2cnc([C@H](C)Nc3cccc(Cl)c3)s2)cc(C)n1` [Compound 128, (2S)-2-({2-[(1S)-1-[(3-chlorophenyl)amino]ethyl]-1,3-thiazol-5-yl}formamido)-3-cyclopentyl-N-(2,6-dimethylpyridin-4-yl)propanamide]: the IC50 worked out at 3910 nM. As for `Cc1ncc(Cl)cc1N[C@@H](C)c1ccc(C(=O)N[C@@H](CC2CCCCC2)C(=O)N[C@H]2C[C@H](F)C2)s1` [Compound 108, (2S)-2-({5-[(1S)-1-[(5-chloro-2-methylpyridin-3-yl)amino]ethyl]thiophen-2-yl}formamido)-3-cyclohexyl-N-[(1r,3r)-3-fluorocyclobutyl]propanamide], the IC50 is 5 nM. Take `COC(=O)[C@H]1C[C@H](NC(=O)[C@H](CC2CCCC2)NC(=O)c2ccc([C@H](C)Nc3cc(Cl)cnc3C)s2)C1` [Compound 94, methyl (1r,3r)-3-[(2S)-2-({5-[(1S)-1-[(5-chloro-2-methylpyridin-3-yl)amino]ethyl]thiophen-2-yl}formamido)-3-cyclopentylpropanamido]cyclobutane-1-carboxylate]: the IC50 came to 5 nM. Under `Cc1ncc(Cl)cc1N[C@@H](C)c1ncc(C(=O)N[C@@H](CC2CCCC2)C(=O)NC23CC(C2)C3)s1` [Compound 310, (2S)-N-{bicyclo[1.1.1]pentan-1-yl}-2-({2-[(1S)-1-[(5-chloro-2-methylpyridin-3-yl)amino]ethyl]-1,3-thiazol-5-yl}formamido)-3-cyclopentylpropanamide] stands 1020 nM. Under `COc1cccc(-c2ncc(Cl)cc2N[C@@H](C)c2ccc(C(=O)N[C@@H](CC3CCCC3)C(=O)NC3CC3)s2)c1` [Compound 267, (2S)-2-({5-[(1S)-1-{[5-chloro-2-(3-methoxyphenyl)pyridin-3-yl]amino}ethyl]thiophen-2-yl}formamido)-3-cyclopentyl-N-cyclopropylpropanamide] stands 10 nM. Take `COC(=O)c1ncc(Cl)cc1N[C@H](C)c1ccc(C(=O)N[C@@H](CC2CCCC2)C(=O)NC2CC2)s1` [Compound 103, methyl 5-chloro-3-{[(1R)-1-(5-{[(1S)-2-cyclopentyl-1-(cyclopropylcarbamoyl)ethyl]carbamoyl}thiophen-2-yl)ethyl]amino}pyridine-2-carboxylate]: the IC50 was 520 nM. In the case of `Cc1ncc(Cl)cc1N[C@@H](C)c1ccc(C(=O)N[C@@H](CC2CCCC2)C(=O)Nc2ccnc(Cl)c2)s1` [Compound 143, (2S)-2-({5-[(1S)-1-[(5-chloro-2-methylpyridin-3-yl)amino]ethyl]thiophen-2-yl}formamido)-N-(2-chloropyridin-4-yl)-3-cyclopentylpropanamide], the IC50 came to 5 nM. With `CNC(=O)[C@H](CC1CCCCC1)NC(=O)c1ccc([C@H](C)Nc2cc(Cl)cnc2C)s1` [Compound 265, (2S)-2-({5-[(1S)-1-[(5-chloro-2-methylpyridin-3-yl)amino]ethyl]thiophen-2-yl}formamido)-3-cyclohexyl-N-methylpropanamide], the IC50 is 8 nM. In the case of `Cc1ncc(Cl)cc1N[C@@H](C)c1ccc(C(=O)N[C@@H](CC2CCC3CC32)C(=O)NC23CC(C2)C3)s1` (stereo partly drawn) [Compound 110, (2S)-N-{bicyclo[1.1.1]pentan-1-yl}-3-{bicyclo[3.1.0]hexan-2-yl}-2-({5-[(1S)-1-[(5-chloro-2-methylpyridin-3-yl)amino]ethyl]thiophen-2-yl}formamido)propanamide], the IC50 came to 6 nM.

With `Cc1cc(NC(=O)[C@H](CC2CCCCC2)NC(=O)c2ccc([C@H](C)Nc3cc(Cl)cnc3C)s2)ccn1` [Compound 252, (2S)-2-({5-[(1S)-1-[(5-chloro-2-methylpyridin-3-yl)amino]ethyl]thiophen-2-yl}formamido)-3-cyclohexyl-N-(2-methylpyridin-4-yl)propanamide], the IC50 amounted to 8 nM. `C[C@@H](Nc1cc(Cl)cnc1C(N)=O)c1ccc(C(=O)N[C@@H](CC2CCCC2)C(=O)NC23CC(C2)C3)s1` [Compound 132, 3-{[(1R)-1-(5-{[(1S)-1-({bicyclo[1.1.1]pentan-1-yl}carbamoyl)-2-cyclopentylethyl]carbamoyl}thiophen-2-yl)ethyl]amino}-5-chloropyridine-2-carboxamide]: the IC50 was 76 nM. For `C[C@H](c1ccc(C(=O)N[C@@H](CC2CCCC2)C(=O)NC2CC2)s1)N1CCCc2ccc(Cl)cc21` [Compound 249, (2S)-2-({5-[(1R)-1-(7-chloro-1,2,3,4-tetrahydroquinolin-1-yl)ethyl]thiophen-2-yl}formamido)-3-cyclopentyl-N-cyclopropylpropanamide], the IC50 stood at 156 nM. Take `Cc1ncc(Cl)cc1N[C@@H](C)c1ccc(C(=O)NC2Cc3ccccc3NC2=O)s1` (stereo partly drawn) [Compound 253, 5-[(1S)-1-[(5-chloro-2-methylpyridin-3-yl)amino]ethyl]-N-(2-oxo-1,2,3,4-tetrahydroquinolin-3-yl)thiophene-2-carboxamide]: the IC50 is over 10000 nM.

As usually defined, the IC50 is the concentration that inhibits the measured activity by half.
